For assay [1], the target named is FASN enzyme isolated from SKBr3 cells (Homo sapiens (Human), UniProt P49327). Briefly: FASN biochemical activity (fluorescence measurement of CoA release, CPM dye).
Assay [2] deals with primary isolated human stellate cells (HSC). Briefly: Primary human hepatic stellate cells stimulated with TGF-β1, total collagen (in vitro fibrosis study). It counts as cell-based. Conditions: primary human hepatic stellate cells, 10 ng/ml TGF-β, 4 days.
Method: Primary isolated human stellate cells (HSC) were investigated in the study. The cells were maintained under standard culture conditions and in established culture medium.
Study Model: Viability screening and in vitro fibrosis study, 24 well plate format, 4 day stimulation with recombinant human TGF-β1. In this study, 2.5 and 10 ng/ml TGF-β1 were used.
(§1) Primary HSCs were seeded on t=day-1 and cultured in 24 well plates for 24 hours. […] Cells were incubated for an additional 96 hours (t=day 4). Conditioned medium samples were collected for expression analysis of secreted proteins. All wells were used for an alamarBlue assay to assess cell viability/metabolic activity. A separate plate was used at t=day 0 as reference for the alamarBlue assay. Next, the cell-matrix fraction was collected for measurement of total collagen and cell protein levels.
Both test compounds were dissolved in DMSO. Working concentrations were prepared from a stock concentration that is 1000-fold that of the highest working concentration. All controls were incubated with the same DMSO concentration as that present in the highest working concentration.
Total Collagen assay was performed according to the manufacturer's protocol.
Total Protein assay, for use with the Total Collagen assay, was performed according to the manufacturer's protocol. Protein levels were used to correct for differences in cell contents between samples.
Significance of differences between the groups was calculated either parametrically or non-parametrically, using the computer program SPSS. For nonparametric calculations, a Kruskal-Wallis test for several independent samples was used, followed by a Mann-Whitney U-test for independent samples. For parametric calculations, a One-way ANOVA for multiple comparisons was used, followed by Dunnett or Bonferroni's correction.
In assay [3] the test system is Male C57BL/6J Gubra-Amylin-MASH (GAN) diet-induced obese mice. Briefly: Gubra-Amylin-MASH (GAN) diet-induced obese mice with biopsy-confirmed MASH, 6 weeks treatment. Conditions: 6-week treatment; for response rate (RR) for reduction of NAS ≥2-points: TVB-3664 5 mg/kg, resmetirom 3 mg/kg PO QD. It counts as in vivo, mouse. On the procedure: This study was designed to evaluate FASN inhibitor alone and in combination with RES on liver histology in biopsy-confirmed MASH mice.
Method: Male C57BL/6J Gubra-Amylin-MASH (GAN) diet-induced obese mice with histologically confirmed NAS (≥5) and fibrosis stage (F1-F3) were randomized and treated with either TVB-3664 (a surrogate FASN inhibitor for denifanstat, 5 mg/kg, PO, QD) or resmetirom (RES; MGL-3196)(3 mg/kg, PO, QD) individually or in combination for 6 weeks (n=10-12 for each group, Gubra, Denmark). Treatment groups are NC (normal chow diet control); VEH (MASH vehicle control); FASN (TVB-3664, FASN inhibitor, surrogate for denifanstat); RES (resmetirom) and COMBO (combination of TVB-3664 and resmetirom).

The subject of assay [4] is Male Ldlr -/-. Leiden mice fed with fast food diet (FFD). Briefly: LDL receptor knockout (Ldlr-/-.Leiden) NASH mice on fast food diet, 10 weeks treatment. It counts as in vivo, mouse. Conditions: for plasma ALT/AST / plasma total cholesterols / plasma triglycerides: TVB-3664 5 mg/kg, resmetirom 3 mg/kg PO QD alone or in combination, 4 weeks, sustained to 10 weeks; for LDL-C / VLDL-C: lipoprotein analysis. On the procedure: This study was designed to evaluate FASN inhibitor alone and in combination with resmetirom on plasma biomarkers and liver histology in LDL receptor knockout (Ldlr−/−. Leiden) NASH mice. FASN inhibitor and resmetirom were also evaluated in vitro in hepatic stellate cells (HSCs) for direct anti-fibrotic effects.
Male Ldlr −/−. Leiden mice were fed with fast food diet (FFD) for 18 weeks to induce NASH features and treated with either TVB-3664 (a surrogate FASN inhibitor for denifanstat, 5 mg/kg, PO, QD) or THRb agonist resmetirom (MGL-3196, 3 mg/kg, PO, QD) alone or in combination for 10 weeks. Endpoints included liver enzymes, lipids and liver histology. Primary human HSCs were stimulated by TGF-b1 and treated with denifanstat or resmetirom at various concentrations (TNO, Netherlands).

The test system of assay [5] is primary isolated human stellate cells (HSC). Briefly: Primary human hepatic stellate cells stimulated with TGF-β1, PAI-1 secretion. The format is cell-based. Conditions: primary human HSCs, TGF-b1-stimulated.
Method: as §1
For assay [6], the system named is NASH/MASH. Conditions: NASH/MASH trials; cited from earlier work.
The test system of assay [7] is C57BL/6J mice fed a high-fat/fructose/cholesterol diet. Briefly: Reversal of established diet-induced, biopsy-confirmed NASH in mice (HFFCD 44 weeks + 8 weeks treatment). Conditions: pirfenidone co-administered with Compound 002-386, 8 weeks. It counts as in vivo, mouse. An excerpt: C57BL/6J mice were fed a high-fat/fructose/cholesterol diet (HFFCD) for 44 weeks. For an additional eight weeks, animals continued a high-fat/fructose/cholesterol diet and received oral once-per-day treatments of either Compound 002-386, the anti-fibrotic pirfenidone, both Compound 002-386 and pirfenidone, or vehicle control. At the end of the study, analyses included histological assessment (NAFLD Activity Score (NAS) and Fibrosis Stage), gene expression (liver) total triglyceride and cholesterol content (liver and plasma), levels of alanine transaminase (ALT), and aspartate transaminase (AST) in plasma and serum cytokine levels. […]
Blood and plasma assays (triglycerides (TG), total-cholesterol (TC), alanine transaminase (ALT), aspartate transaminase (AST)): Blood samples were collected in heparinized tubes and plasma was separated and stored at −80° C. until analysis. TG, TC, ALT, AST were measured using commercial kits (Roche Diagnostics, Germany) on the Cobas™ C-501 autoanalyzer according to the manufacturer's instructions.
NAFLD activity score (NAS) and fibrosis stage: Liver samples were fixed in formalin, paraffin embedded, and sections were stained with hematoxylin and eosin (H&E) and Sirius Red. Samples were scored for NAS and fibrosis stage (outlined below) using of the clinical criteria outlined by Kleiner et al. 2005. […]

The test system of assay [8] is NASH/MASH. Conditions: cited from earlier work.

Each structure is given as a SMILES string.

In assay [1], `N#Cc1ccc(C2(F)CCN(C(=O)c3ccc(Cl)c(NC(=O)c4ccc(N5CCC5)nc4)c3)CC2)nc1` [Compound 001-57] came in with a half-inhibitory concentration (IC50) of 30 nM.
Regarding `CCc1cc(C)c(-c2ncc(C3CCOC3)[nH]2)cc1C(=O)N1CCC(c2ccc(C#N)cc2)CC1` (stereo not shown) [Compound 001-192], the half-maximal inhibitory concentration (IC50) in assay [1] worked out at 300 nM.
Turning to `CCc1nnc(-c2cc(C(=O)N3CCC(c4ccc(C#N)cc4)CC3)c(C)cc2C2CC(F)(F)C2)o1` [Compound 001-231], 300 nM corresponded to half-maximal inhibition in assay [1] (IC50).
In turn, `CC(C)CNC(=O)Nc1cc(C(=O)N2CCC(c3ccc(C#N)cn3)CC2)cnn1` [Compound 001-305] had an IC50 in assay [1] of over 50000 nM.
As for `CC(C)c1cc(Oc2c(Cl)cc(-n3nc(C#N)c(=O)[nH]c3=O)cc2Cl)n[nH]c1=O` [Compound A, resmetirom], in assay [2], the collagen production result is given as “did not display the same effect”. Further, in assay [3], the “lobular inflammation, 1-point RR” value is 8% and the “steatosis, RR for 1-point reduction” value is given as 50%.
Take `COCc1[nH]c(C(F)(F)F)nc1-c1cc(C(=O)N2CC(c3ccc(C#N)cc3)C2)c(C)cc1C` [TVB-3664]: in assay [4], the “plasma ALT/AST” value was “rapidly reduced”, the plasma total cholesterols result is “rapidly reduced”, the plasma triglycerides entry is “rapidly reduced” and the LDL-C result was “significantly reduced”. Besides, the VLDL-C entry in assay [4] is “significantly reduced”. For the same compound, in assay [3], the “lobular inflammation, 1-point RR” value worked out at 42%; the “steatosis, RR for 1-point reduction” value was 17%; the “response rate (RR) for reduction of NAS ≥2-points” value was found to be 33%.
In the case of `Cc1nnc(-c2cc(C(=O)N3CCC(c4ccc(C#N)cc4)CC3)c(C)cc2C2CCC2)[nH]1` [denifanstat], the collagen production result in assay [2] is listed as “decreased”. The “plasminogen 1 (PAI-1) secretion” value in assay [5] is given as “decreased”. The “liver fat and biomarkers associated with inflammation and fibrosis” value in the assay on NASH/MASH [6] was “improvements in liver fat and biomarkers associated with inflammation and fibrosis”.
For `Cc1ccc(=O)n(-c2ccccc2)c1` [pirfenidone], in assay [7], the liver fibrosis result is “further reduced liver fibrosis”.
On to `CC(C)c1cc(Oc2c(Cl)cc(-n3nc(C#N)c(=O)[nH]c3=O)cc2Cl)n[nH]c1=O` [resmetirom], for which the “plasminogen 1 (PAI-1) secretion” value in assay [5] was “not”. Moreover, in assay [4], the “plasma ALT/AST” value is “rapidly reduced”, the plasma total cholesterols entry is on record as “rapidly reduced”, the plasma triglycerides result is “rapidly reduced” and the LDL-C result is “significantly reduced”. Moreover, the VLDL-C entry in assay [4] is given as “significantly reduced”. The “response rate (RR) for reduction of NAS ≥2-points” value in assay [3] was 25%. Besides, the “NASH/MASH resolution and fibrosis improvement” value in the assay on NASH/MASH [8] (Phase III clinical trial) is “significant NASH/MASH resolution and fibrosis improvement”. Further, in the assay with NASH/MASH [8] (human, in vivo), the histology response rates is listed as under 50%.

The values are drawn from US20250017938A1, “COMBINATION THERAPIES OF FASN INHIBITORS WITH THYROID HORMONE RECEPTOR AGONISTS” (Sagimet Biosciences Inc., priority 2023, published 2025).
